Earlier results in patent US20140275257A1, “N-ACETYL CYSTEINE COMPOSITIONS IN THE TREATMENT OF SYSTEMIC LUPUS ERYTHEMATOSUS” (Foundation for the State University of New York, priority 2013, published 2014).

Legend:
[1] = test system: CD4+/CD25+/FoxP3+ T cells; details: Lai et al. (2010); cited from earlier work
[2] = test system: MRL/lpr lupus mouse model; details: cited from earlier work
human SLE patients = details: patients resistant or intolerant to conventional medications; Fernandez et al. (2006); cited from earlier work
[3] = effects counter to those reported for NAC; Samstrand et al (1999); cited from earlier work

| SMILES | CD4+/CD25+/FoxP3+ T cells in patients with SLE [1] | survival of lupusprone MRL/lpr lupus mouse model ([2]; Warner et al. (1994)) | disease activity in murine lupus ([2]; blockade of mTOR) | disease activity in human SLE patients (human SLE patients) | bioactive at doses less than NAC [3] |
| --- | --- | --- | --- | --- | --- |
| CO[C@H]1C[C@@H]2CC[C@@H](C)[C@@](O)(O2)C(=O)C(=O)N2CCCC[C@H]2C(=O)O[C@H]([C@H](C)C[C@@H]2CC[C@@H](O)[C@H](OC)C2)CC(=O)[C@H](C)/C=C(\C)[C@@H](O)[C@@H](OC)C(=O)[C@H](C)C[C@H](C)/C=C/C=C/C=C/1C [rapamycin] | expanded | prolonged survival | improves disease activity | improves disease activity | – |
| CC(=O)N[C@@H](CSSC[C@H](NC(C)=O)C(=O)O)C(=O)O [oxidized form of NAC] | – | – | – | – | 10-100 fold |
